Several values for one entry are separate records, joined by “and”; a condition that tells them apart may be missing. Equal entries are not always repeated.
Key:
[1] = system: ATF6 activity in Hela ATF6 reporter cells; experiment: Endoplasmic reticulum stress assay (ATF6 Renilla luciferase reporter, tunicamycin); assay type: cell-based; settings: Homo sapiens, HeLa, 1 µM, single replicates n=1 to n=5; read-out: ER stress [rel. ATF6 activity]
How it was run: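 HeLa ATF6 Renilla reporter cells were pretreated 4 h with compounds in 0.1% DMSO, then stimulated with tunicamycin (100 ng/mL) for 18 h. Renilla luminescence (DualGlo) was normalized to 0.1% DMSO control; five independent experiments.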

AURKA = target: T1, AURKA (Homo sapiens, UniProt O14965); experiment: Liability panel screening by DSF: AURKA; assay type: binding; settings: DSF, 20 µM, n=2; read-out: Mean ΔTM AURKA
T1 construct: made in house
T1 sequence (O14965 1-403): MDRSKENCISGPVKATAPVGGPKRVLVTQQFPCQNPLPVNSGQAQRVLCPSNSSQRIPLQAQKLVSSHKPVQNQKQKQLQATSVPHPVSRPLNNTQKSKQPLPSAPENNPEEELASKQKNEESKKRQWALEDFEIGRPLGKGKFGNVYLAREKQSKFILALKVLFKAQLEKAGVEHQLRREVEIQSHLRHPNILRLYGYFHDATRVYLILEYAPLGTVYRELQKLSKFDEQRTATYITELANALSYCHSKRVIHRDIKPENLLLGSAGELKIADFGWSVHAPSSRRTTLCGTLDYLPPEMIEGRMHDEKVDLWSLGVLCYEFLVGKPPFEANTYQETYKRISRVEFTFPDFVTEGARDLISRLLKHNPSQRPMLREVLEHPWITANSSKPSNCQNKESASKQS
How it was run: (§1)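 Recombinant protein at 2 µM in 10 mM HEPES pH 7.5 with 500 mM NaCl was mixed with SYPRO Orange (1:1000) and heated at 3 °C/min up to 85 °C. Tm was taken as the Boltzmann-fit inflection point. Shifts are ∆Tm in K from technical duplicates.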

GSK3B = target: T2, GSK3B (Homo sapiens, UniProt P49841); experiment: Liability panel screening by DSF: GSK3B; assay type: binding; settings: DSF, 20 µM, n=2; read-out: Mean ΔTM GSK3B
T2 construct: made in house
T2 sequence (P49841 whole entry, species assumed): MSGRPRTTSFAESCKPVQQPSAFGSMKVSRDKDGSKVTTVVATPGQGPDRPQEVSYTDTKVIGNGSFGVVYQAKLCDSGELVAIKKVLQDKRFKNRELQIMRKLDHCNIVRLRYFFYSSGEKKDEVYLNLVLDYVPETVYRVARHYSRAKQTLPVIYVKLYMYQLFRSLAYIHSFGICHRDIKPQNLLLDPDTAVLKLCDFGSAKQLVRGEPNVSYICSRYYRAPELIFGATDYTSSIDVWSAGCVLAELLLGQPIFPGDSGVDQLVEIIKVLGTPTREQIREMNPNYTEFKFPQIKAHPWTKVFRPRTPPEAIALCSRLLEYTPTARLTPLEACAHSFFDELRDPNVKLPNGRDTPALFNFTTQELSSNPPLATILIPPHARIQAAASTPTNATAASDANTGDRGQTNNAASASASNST

CSNK1D = target: T3, CSNK1D (Homo sapiens, UniProt P48730); experiment: Liability panel screening by DSF: CSNK1D; assay type: binding; settings: DSF, 20 µM, n=2; read-out: Mean ΔTM CSNK1D
T3 construct: made in house
T3 sequence (P48730 whole entry, species assumed): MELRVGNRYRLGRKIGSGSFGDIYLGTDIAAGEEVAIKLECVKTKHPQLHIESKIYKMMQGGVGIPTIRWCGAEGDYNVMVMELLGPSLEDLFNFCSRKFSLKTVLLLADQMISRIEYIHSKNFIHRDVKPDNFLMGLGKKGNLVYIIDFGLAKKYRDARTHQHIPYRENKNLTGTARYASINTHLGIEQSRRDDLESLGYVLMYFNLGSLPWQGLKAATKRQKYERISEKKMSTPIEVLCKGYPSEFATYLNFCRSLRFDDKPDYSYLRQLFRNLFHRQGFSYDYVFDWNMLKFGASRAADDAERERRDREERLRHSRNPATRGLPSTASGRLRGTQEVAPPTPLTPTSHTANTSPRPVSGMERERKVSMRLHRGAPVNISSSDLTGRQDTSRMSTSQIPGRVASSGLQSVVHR
How it was run: as §1

CDK2 = target: T4, CDK2 (Homo sapiens, UniProt P24941); experiment: Liability panel screening by DSF: CDK2; assay type: binding; settings: DSF, 20 µM, n=2; read-out: Mean ΔTM CDK2
T4 construct: made in house
How it was run: as §1

BRD4 = target: T5, BRD4 (Homo sapiens, UniProt O60885); experiment: Liability panel screening by DSF: BRD4; assay type: binding; settings: DSF, 20 µM, n=2; read-out: Mean ΔTM BRD4
T5 construct: This panel comprised ten highly ligandable kinases and bromodomains; made in house
How it was run: as §1

HEK293T cells [2] = experiment: Cytotoxicity: metabolic activity (WST-8 / CCK-8 assay); settings: 1 µM; HEK293T, 24 h; WST-8; normalized to 0.1% DMSO; single replicates
Gal4-VP16 = assay type: cell-based; settings: 1 µM; vs. DMSO ctrl; single replicates n=1-3
Method: Five hours after transfection, the cells were incubated with the NR3 CG compound candidates at the recommended concentrations by changing the medium to Opti-MEM supplemented with penicillin (100 µ/mL) and streptomycin (100 µg/mL) additionally containing 0.1% DMSO and the respective test compound or 0.1% DMSO alone as untreated control. Firefly (reporter) and renilla (control) luminescence were measured after 14–16 h incubation using the Dual-Glo® Luciferase Assay System (Promega, Fitchburg, Wisconsin, USA; #E2980) according to manufacturer’s protocol on a Tecan Spark® 10M multimode microplate reader (Tecan Group AG, Männedorf, Switzerland). To obtain relative light units (RLU) firefly luminescence was divided by renilla luminescence and multiplied by 1000. Fold activation was obtained by dividing the mean RLU of a test sample by the mean RLU of the DMSO (0.1%) control. Experiments were performed in singlets in at least three biologically independent repeats.
are labeled according to their mode of action (yellow - agonist, grey - antagonist, grey with label D - degrader) and grouped by their
NR3 subfamily main targets.
reporter activity at the indicated concentrations expressed as mean fold reporter gene activity (n=3).

BRPF1 = target: T6, BRPF1 (Homo sapiens, UniProt P55201); experiment: Liability panel screening by DSF: BRPF1; assay type: binding; settings: DSF, 20 µM, n=2; read-out: Mean ΔTM BRPF1
T6 construct: This panel comprised ten highly ligandable kinases and bromodomains; made in house
T6 sequence (P55201 628-732 limits assumed): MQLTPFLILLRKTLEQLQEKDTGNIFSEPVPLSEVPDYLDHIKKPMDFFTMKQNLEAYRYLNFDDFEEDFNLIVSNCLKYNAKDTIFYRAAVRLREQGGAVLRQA
How it was run: as §1

HEK293T cells [3] = experiment: Cytotoxicity: necrosis induction (red fluorescent dye for permeable plasma membranes); assay type: cell-based; settings: 1 µM, 24 h, necrotic cell count normalized to 0.1% DMSO, single replicates;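 also: compounds applied in DMEM high glucose with 0.1% FCS and 0.1% DMSO, necrotic HEK293T cells counted by red staining of cells whose plasma membranes had become permeable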
ABL1 = target: T7, ABL1 (Homo sapiens, UniProt P00519); experiment: Liability panel screening by DSF: ABL1; assay type: binding; settings: DSF, 20 µM, n=2; read-out: Mean ΔTM ABL1
T7 construct: made in house
T7 sequence (P00519 whole entry, species assumed): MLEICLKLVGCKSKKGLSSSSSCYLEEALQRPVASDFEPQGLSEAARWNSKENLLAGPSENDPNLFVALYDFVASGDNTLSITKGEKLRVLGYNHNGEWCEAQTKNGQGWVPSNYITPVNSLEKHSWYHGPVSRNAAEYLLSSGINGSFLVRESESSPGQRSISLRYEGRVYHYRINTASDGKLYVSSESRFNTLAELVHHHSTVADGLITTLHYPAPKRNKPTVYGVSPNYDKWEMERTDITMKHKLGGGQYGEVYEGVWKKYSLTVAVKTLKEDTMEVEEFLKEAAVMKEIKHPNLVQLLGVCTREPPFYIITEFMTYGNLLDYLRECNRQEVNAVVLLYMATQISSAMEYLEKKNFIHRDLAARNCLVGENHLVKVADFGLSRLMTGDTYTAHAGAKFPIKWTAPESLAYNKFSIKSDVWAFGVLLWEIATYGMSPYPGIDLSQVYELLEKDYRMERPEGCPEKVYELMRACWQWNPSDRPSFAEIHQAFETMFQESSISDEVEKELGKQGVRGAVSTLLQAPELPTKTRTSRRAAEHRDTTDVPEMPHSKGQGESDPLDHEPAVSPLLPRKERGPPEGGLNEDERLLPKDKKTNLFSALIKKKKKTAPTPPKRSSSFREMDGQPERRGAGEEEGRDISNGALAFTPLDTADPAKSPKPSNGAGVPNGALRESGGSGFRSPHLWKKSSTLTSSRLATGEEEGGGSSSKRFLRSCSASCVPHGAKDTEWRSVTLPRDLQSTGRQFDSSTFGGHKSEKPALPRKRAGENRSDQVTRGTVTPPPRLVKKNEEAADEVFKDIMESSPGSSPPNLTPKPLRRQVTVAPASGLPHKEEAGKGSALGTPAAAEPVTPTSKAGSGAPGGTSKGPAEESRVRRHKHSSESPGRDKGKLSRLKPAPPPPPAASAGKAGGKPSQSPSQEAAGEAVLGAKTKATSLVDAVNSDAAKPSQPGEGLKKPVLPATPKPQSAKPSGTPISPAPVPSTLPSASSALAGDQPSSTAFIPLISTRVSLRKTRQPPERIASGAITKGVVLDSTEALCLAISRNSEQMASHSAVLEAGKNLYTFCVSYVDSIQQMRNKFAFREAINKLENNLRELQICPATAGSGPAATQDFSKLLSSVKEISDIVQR
How it was run: as §1

MAPK1 = target: T8, MAPK1 (Homo sapiens, UniProt P28482); experiment: Liability panel screening by DSF: MAPK1; assay type: binding; settings: DSF, 20 µM, n=2; read-out: Mean ΔTM MAPK1
T8 construct: made in house
T8 sequence (P28482 whole entry, species assumed): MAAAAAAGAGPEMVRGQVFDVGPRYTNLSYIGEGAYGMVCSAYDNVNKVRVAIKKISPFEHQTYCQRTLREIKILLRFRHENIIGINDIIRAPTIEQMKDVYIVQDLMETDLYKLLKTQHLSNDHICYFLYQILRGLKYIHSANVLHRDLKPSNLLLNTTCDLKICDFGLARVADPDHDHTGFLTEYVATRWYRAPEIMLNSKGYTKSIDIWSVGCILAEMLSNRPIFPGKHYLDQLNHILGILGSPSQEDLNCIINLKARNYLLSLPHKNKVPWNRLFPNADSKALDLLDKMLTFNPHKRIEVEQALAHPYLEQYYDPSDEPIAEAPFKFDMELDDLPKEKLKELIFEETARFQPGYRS
How it was run: as §1

TRIM24 = target: T9, TRIM24 (Homo sapiens, UniProt O15164); experiment: Liability panel screening by DSF: TRIM24; assay type: binding; settings: DSF, 20 µM, n=2; read-out: Mean ΔTM TRIM24
T9 construct: This panel comprised ten highly ligandable kinases and bromodomains; made in house
T9 sequence (O15164 899-1004 limits assumed): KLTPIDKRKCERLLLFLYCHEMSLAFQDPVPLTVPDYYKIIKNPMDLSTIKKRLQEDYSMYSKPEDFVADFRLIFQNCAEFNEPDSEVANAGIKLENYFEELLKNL
How it was run: as §1

HEK293T cells [4] = experiment: Cytotoxicity: growth-rate (change in confluence over 24 h); settings: 1 µM, normalized to 0.1% DMSO control, single replicates (n=1...)
Method: Cells were incubated with the test compounds at the indicated concentrations solubilized with 0.1% DMSO for 24 h. Growth-rate was determined based on the change in confluence over 24 h normalized to the change in confluence of cells treated with the 0.1% DMSO control (n = 10). Metabolic activity was determined with a water-soluble tetrazolium-8 (WST-8) assay (n = 8) after 24 h treatment. Apoptotic cells were detected with a fluorogenic DNA dye coupled to the caspase-3/7 recognition sequence (DEVD) after 24 h treatment and the apoptotic cell count was normalized to 0.1% DMSO treated cells (n = 6).
HEK293T cells (German Collection of Microorganisms and Cell Culture GmbH, DSMZ; #ACC305) were cultured in DMEM high glucose, supplemented with 10% fetal calf serum (FCS), sodium pyruvate (1 mM), penicillin (100 µ/mL) and streptomycin (100 µg/mL) at 37 °C and 5% (v/v) CO2, and seeded in pre-coated (10 µg/mL collagen G solution (Merck KgaA; #L7213) for 30 min at 37 °C) 96-well plates (2 × 10^5 cells per well). After 24 h, the cells were treated with the respective NR3 CG compound candidate at the recommended concentration, bexarotene (100 µM) or doxorubicin (30 µM) as positive controls in DMEM high glucose supplemented with 0.1% FCS, penicillin (100 µ/mL), streptomycin (100 µg/mL) and 0.1% DMSO, or 0.1% DMSO alone as an untreated control. Each sample was prepared in at least four biologically independent replicates. […] Thereafter, the medium was aspirated and the cells were incubated for 3 h with 90 µL DMEM high glucose supplemented with 0.2% FCS, penicillin (100 µ/mL) and streptomycin (100 µg/mL) and additionally containing 10 µL Cell Counting Kit 8 solution (CCK-8; MedChemExpress, Monmouth Junction, New York, USA; #HY-K0301), and absorbance was measured at 1 h, 2 h and 3 h of incubation at 450 nm on a Tecan Spark Cyto to assess metabolic activity of the cells. Before drug administration, after the first medium exchange, 24 h after drug administration, and after fluorescence imaging cell confluence was assessed using the Tecan Spark Cyto, to account for changes in cell confluence due to drug administration and cell handling. Compound effects on cell confluence, apoptosis, metabolic activity and necrosis were normalized to the vehicle control of each biological replicate individually.

[5] = system: NF-κB activity in HEK293 NF-κB reporter cells; experiment: NF-kB activity assay (GFP reporter, ionomycin/PMA); assay type: cell-based; settings: n=3
How it was run: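 HEK293 NF-κB GFP reporter cells given compound in 0.1% DMSO for 4 h, then stimulated with ionomycin 100 ng/mL plus PMA 10 ng/mL. Imaged every 90 min over 24 h; GFP-positive cell count normalized to confluence, three independent biological replicates.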

HEK293T cells [6] = experiment: Cytotoxicity: apoptosis induction (caspase-3/7 DEVD fluorogenic DNA dye); settings: 1 µM; HEK293T, 24 h; apoptotic cell count normalized to 0.1% DMSO; single replicates
FGFR3 = target: T10, FGFR3 (Homo sapiens, UniProt P22607); experiment: Liability panel screening by DSF: FGFR3; assay type: binding; settings: DSF, 20 µM, n=2; read-out: Mean ΔTM FGFR3
T10 construct: made in house
T10 sequence (P22607 23-806, species assumed): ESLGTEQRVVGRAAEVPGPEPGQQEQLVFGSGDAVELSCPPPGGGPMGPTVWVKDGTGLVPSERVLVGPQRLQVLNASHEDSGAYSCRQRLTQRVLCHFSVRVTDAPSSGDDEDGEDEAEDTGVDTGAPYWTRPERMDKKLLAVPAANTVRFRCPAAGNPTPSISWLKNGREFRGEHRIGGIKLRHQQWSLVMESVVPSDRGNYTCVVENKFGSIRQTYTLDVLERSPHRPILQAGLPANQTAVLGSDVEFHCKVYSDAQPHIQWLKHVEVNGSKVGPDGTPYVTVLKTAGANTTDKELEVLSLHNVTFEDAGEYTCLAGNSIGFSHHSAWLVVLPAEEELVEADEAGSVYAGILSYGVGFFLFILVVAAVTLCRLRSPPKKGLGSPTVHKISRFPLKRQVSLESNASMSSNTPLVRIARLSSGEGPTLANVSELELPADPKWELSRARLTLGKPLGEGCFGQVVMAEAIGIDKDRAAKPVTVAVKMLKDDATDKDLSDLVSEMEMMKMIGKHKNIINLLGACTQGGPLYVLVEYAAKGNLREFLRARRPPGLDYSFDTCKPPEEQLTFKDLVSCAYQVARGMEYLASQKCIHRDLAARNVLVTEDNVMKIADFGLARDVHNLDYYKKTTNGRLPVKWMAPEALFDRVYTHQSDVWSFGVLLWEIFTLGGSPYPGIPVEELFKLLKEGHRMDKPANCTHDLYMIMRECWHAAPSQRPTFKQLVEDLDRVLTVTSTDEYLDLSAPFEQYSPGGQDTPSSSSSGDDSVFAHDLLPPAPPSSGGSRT
How it was run: as §1

| Compound | activity at 1 µM [1] [%] | ΔTm at 20 µM (AURKA) [°C] | ΔTm at 20 µM (GSK3B) [°C] | ΔTm at 20 µM (CSNK1D) [°C] | ΔTm at 20 µM (CDK2) [°C] | ΔTm at 20 µM (BRD4) [°C] | Metabolic activity [MA] (HEK293T cells [2]) | VP16 control [fold reporter gene activity] (Gal4-VP16) | ΔTm at 20 µM (BRPF1) [°C] | Necrosis induction [NI] (HEK293T cells [3]) | ΔTm at 20 µM (ABL1) [°C] | ΔTm at 20 µM (MAPK1) [°C] | ΔTm at 20 µM (TRIM24) [°C] | Growth rate [GR] (HEK293T cells [4]) | Mean NFκB response ([5]; 1 µM, 1,5 h) | Mean NFκB response ([5]; 1 µM, 4,5 h) | Mean NFκB response ([5]; 1 µM, 7,5 h) | Mean NFκB response ([5]; 1 µM, 10,5 h) | Mean NFκB response ([5]; 1 µM, 13,5 h) | Mean NFκB response ([5]; 1 µM, 16,6 h) | further results |
| --- | --- | --- | --- | --- | --- | --- | --- | --- | --- | --- | --- | --- | --- | --- | --- | --- | --- | --- | --- | --- | --- |
| COC(=O)[C@@H]1CC2=CC(=O)CC[C@]2(C)[C@@]23O[C@@H]2C[C@@]2(C)[C@@H](CC[C@@]24CCC(=O)O4)[C@H]13 [Eplerenone] | 96 | -0.81 | -0.8 | 0.47 | -0.21 | -1.74 | 1.06 and 1.03 and 0.91 and 0.99 (3×) and 0.98 and 1.09 | 1.24 fold reporter gene activity and 0.82 fold reporter gene activity and 1.00 fold reporter gene activity | -1.07 | 1.05 and 1.24 and 1.00 and 0.99 | 0.55 | 0.21 | -0.62 | 0.85 and 4.28 and 0.92 and 1.11 and 0.73 and 0.84 and 0.96 and 4.53 and 0.57 and 31.96 | 2599.33 GFP+-cells/confluence ∙ 1000 | 2970.00 GFP+-cells/confluence ∙ 1000 | 5786.00 GFP+-cells/confluence ∙ 1000 | 15820.00 GFP+-cells/confluence ∙ 1000 | 23870.00 GFP+-cells/confluence ∙ 1000 | 30236.67 GFP+-cells/confluence ∙ 1000 | Mean NFκB response ([5]; 1 µM, 19,5 h): 34356.67 GFP+-cells/confluence ∙ 1000; Mean NFκB response ([5]; 1 µM, 22,5 h): 38213.33 GFP+-cells/confluence ∙ 1000; Mean NFκB response ([5]; 1 µM, 3 h): 2606.00 GFP+-cells/confluence ∙ 1000; Mean NFκB response ([5]; 1 µM, 6 h): 3625.00 GFP+-cells/confluence ∙ 1000; Mean NFκB response ([5]; 1 µM, 9 h): 10753.00 GFP+-cells/confluence ∙ 1000; Mean NFκB response ([5]; 1 µM, 12 h): 20210.00 GFP+-cells/confluence ∙ 1000; Mean NFκB response ([5]; 1 µM, 15 h): 27316.67 GFP+-cells/confluence ∙ 1000; Mean NFκB response ([5]; 1 µM, 18 h): 32426.67 GFP+-cells/confluence ∙ 1000; Mean NFκB response ([5]; 1 µM, 21 h): 36556.67 GFP+-cells/confluence ∙ 1000; Mean NFκB response ([5]; 1 µM, 24 h): 39176.67 GFP+-cells/confluence ∙ 1000; Apoptosis induction [AI] (HEK293T cells [6]): 0.96 and 0.85 and 1.29 and 1.36 and 1.16 and 1.24; ΔTm at 20 µM (FGFR3): 1.06 °C |
| CC(=O)O[C@]1(C(C)=O)CC[C@H]2[C@@H]3CCC4=CC(=O)CCC4=C3[C@@H](c3ccc(N(C)C)cc3)C[C@@]21C [Ulipristal acetate] | 102 | -1.14 | -0.83 | 0.22 | -0.32 | -2.72 | 1.04 and 0.97 and 0.99 (2×) and 1.03 (2×) and 0.96 and 1.08 | 1.05 fold reporter gene activity and 1.09 fold reporter gene activity and 1.04 fold reporter gene activity | -2.65 | 1.05 and 1.11 and 0.95 and 0.92 | 0.29 | -0.0546 | -1.79 | 0.78 and 1.52 and 1.08 and 1.00 (2×) and 1.04 and 0.73 and 0.60 and 1.80 and 3.99 | 2644.31 GFP+-cells/confluence ∙ 1000 | 3036.67 GFP+-cells/confluence ∙ 1000 | 6043.33 GFP+-cells/confluence ∙ 1000 | 16570.00 GFP+-cells/confluence ∙ 1000 | 25096.67 GFP+-cells/confluence ∙ 1000 | 31636.67 GFP+-cells/confluence ∙ 1000 | Mean NFκB response ([5]; 1 µM, 19,5 h): 36313.33 GFP+-cells/confluence ∙ 1000; Mean NFκB response ([5]; 1 µM, 22,5 h): 39910.00 GFP+-cells/confluence ∙ 1000; Mean NFκB response ([5]; 1 µM, 3 h): 2710.00 GFP+-cells/confluence ∙ 1000; Mean NFκB response ([5]; 1 µM, 6 h): 3846.67 GFP+-cells/confluence ∙ 1000; Mean NFκB response ([5]; 1 µM, 9 h): 10723.33 GFP+-cells/confluence ∙ 1000; Mean NFκB response ([5]; 1 µM, 12 h): 21213.33 GFP+-cells/confluence ∙ 1000; Mean NFκB response ([5]; 1 µM, 15 h): 28280.00 GFP+-cells/confluence ∙ 1000; Mean NFκB response ([5]; 1 µM, 18 h): 34176.67 GFP+-cells/confluence ∙ 1000; Mean NFκB response ([5]; 1 µM, 21 h): 38276.67 GFP+-cells/confluence ∙ 1000; Mean NFκB response ([5]; 1 µM, 24 h): 41050.00 GFP+-cells/confluence ∙ 1000; Apoptosis induction [AI] (HEK293T cells [6]): 0.98 (2×) and 0.83 and 1.37 and 1.27 and 0.92; ΔTm at 20 µM (FGFR3): -0.057 °C |
| Oc1ccc(-c2c(-c3ccccc3)nn3c(C(F)(F)F)cc(C(F)(F)F)nc23)cc1 [PHTPP] | 100 | -0.53 | -0.0558 | 0.39 | 0.46 | -1.27 | 1.07 and 1.08 and 1.01 and 1.13 and 1.04 (2×) and 0.95 and 1.05 | 0.97 fold reporter gene activity and 1.04 fold reporter gene activity and 1.08 fold reporter gene activity | -1.38 | 1.05 and 0.87 and 0.89 and 1.10 | 2.06 | -0.2 | -0.6 | 0.97 and 0.45 and 1.07 and 1.62 and 1.13 and 0.53 and 1.06 and 0.18 and 2.38 and 3.71 | 2680.27 GFP+-cells/confluence ∙ 1000 | 3558.89 GFP+-cells/confluence ∙ 1000 | 8794.33 GFP+-cells/confluence ∙ 1000 | 18394.67 GFP+-cells/confluence ∙ 1000 | 26267.00 GFP+-cells/confluence ∙ 1000 | 32070.00 GFP+-cells/confluence ∙ 1000 | Mean NFκB response ([5]; 1 µM, 19,5 h): 36033.33 GFP+-cells/confluence ∙ 1000; Mean NFκB response ([5]; 1 µM, 22,5 h): 39210.00 GFP+-cells/confluence ∙ 1000; Mean NFκB response ([5]; 1 µM, 3 h): 2926.71 GFP+-cells/confluence ∙ 1000; Mean NFκB response ([5]; 1 µM, 6 h): 4822.41 GFP+-cells/confluence ∙ 1000; Mean NFκB response ([5]; 1 µM, 9 h): 14065.00 GFP+-cells/confluence ∙ 1000; Mean NFκB response ([5]; 1 µM, 12 h): 22714.33 GFP+-cells/confluence ∙ 1000; Mean NFκB response ([5]; 1 µM, 15 h): 29343.33 GFP+-cells/confluence ∙ 1000; Mean NFκB response ([5]; 1 µM, 18 h): 34043.33 GFP+-cells/confluence ∙ 1000; Mean NFκB response ([5]; 1 µM, 21 h): 37940.00 GFP+-cells/confluence ∙ 1000; Mean NFκB response ([5]; 1 µM, 24 h): 40376.67 GFP+-cells/confluence ∙ 1000; Apoptosis induction [AI] (HEK293T cells [6]): 0.81 and 1.09 and 0.92 and 1.05 and 0.26 and 0.21; ΔTm at 20 µM (FGFR3): 1.15 °C |
